In ChEMBL document CHEMBL1155207, “Palbinone and triterpenes from Moutan Cortex (Paeonia suffruticosa, Paeoniaceae) stimulate glucose uptake and glycogen synthesis via activation of AMPK in insulin-resistant human HepG2 Cells” (Bioorg Med Chem Lett, 2009):
Active and inactive are the calls of the source. The calls are words filed in the database; no cut-off is given here.

Assays:
[1] = Cytotoxicity against human HepG2 cells assessed as cell survival at 5 uM after 24 hrs by MTT assay; format: cell-based; conditions: read-out: Survival
[2] = Cytotoxicity against human HepG2 cells assessed as cell survival at 10 uM after 24 hrs by MTT assay; format: cell-based; conditions: read-out: Survival
[3] = Cytotoxicity against human HepG2 cells assessed as cell survival at 20 uM after 24 hrs by MTT assay; format: cell-based; conditions: read-out: Survival
[4] = Cytotoxicity against human HepG2 cells assessed as cell survival at 100 uM after 24 hrs by MTT assay; format: cell-based; conditions: read-out: Survival
[5] = target: T1, AMP-activated protein kinase, AMPK (Homo sapiens) (UniProt P54646+O43741+P54619+Q9UGJ0+Q9Y478+Q13131+Q9UGI9); assay: Induction of AMPK phosphorylation in human HepG2 cells at 10 uM by Western blot analysis in presence of 33 mM glucose; format: cell-based
[6] = target: Glycogen synthase kinase-3 beta (Homo sapiens) (UniProt P49841); assay: Induction of GSK3-beta phosphorylation in human HepG2 cells at 10 uM by Western blot analysis in presence of 33 mM glucose; format: cell-based
HepG2 [7] = assay: Increase in glycogen synthesis in human HepG2 cells assessed as incorporation of [14C]glucose in to cellular glycogen pools at 10 uM after 60 mins in presence of 33 mM glucose; format: functional, cell-based
HepG2 [8] = assay: Induction of glucose uptake in human HepG2 cells at 10 uM in presence of 33 mM […] by scintillation counting; format: functional, cell-based
[9] = target: T1, AMP-activated protein kinase, AMPK (Homo sapiens); assay: Induction of AMPK phosphorylation in human HepG2 cells by Western blot analysis in presence of 33 mM glucose; format: cell-based
[10] = target: Glycogen synthase kinase-3 beta (Homo sapiens) (UniProt P49841); assay: Induction of GSK3-beta phosphorylation in human HepG2 cells by Western blot analysis in presence of 33 mM glucose; format: cell-based
HepG2 [11] = assay: Induction of acetyl-coA carboxylase phosphorylation in human HepG2 cells by Western blot analysis in presence of 33 mM glucose; format: cell-based
HepG2 [12] = assay: Increase in glycogen synthesis in human HepG2 cells assessed as incorporation of [14C]glucose in to cellular glycogen pools at 1 uM after 60 mins in presence of 33 mM glucose; format: functional, cell-based
HepG2 [13] = assay: Induction of glucose uptake in human HepG2 cells in presence of 33 mM […] by scintillation counting; format: functional, cell-based

Sequence of Glycogen synthase kinase-3 beta (Homo sapiens) (P49841 whole entry, looked up): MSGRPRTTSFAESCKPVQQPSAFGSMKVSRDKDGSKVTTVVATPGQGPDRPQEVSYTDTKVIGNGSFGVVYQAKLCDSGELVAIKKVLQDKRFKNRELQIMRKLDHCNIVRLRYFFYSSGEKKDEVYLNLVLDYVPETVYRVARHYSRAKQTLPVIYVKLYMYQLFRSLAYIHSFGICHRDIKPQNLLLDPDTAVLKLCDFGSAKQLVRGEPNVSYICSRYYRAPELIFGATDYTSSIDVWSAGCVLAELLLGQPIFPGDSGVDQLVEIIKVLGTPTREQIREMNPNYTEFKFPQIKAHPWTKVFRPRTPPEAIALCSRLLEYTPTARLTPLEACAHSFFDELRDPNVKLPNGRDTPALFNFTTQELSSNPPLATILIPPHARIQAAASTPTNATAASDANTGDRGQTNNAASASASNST

`C=C(C)[C@@H]1CC[C@]2(C(=O)O)CC[C@]3(C)[C@H](CC[C@@H]4[C@@]5(C)CC[C@H](O)C(C)(C)[C@@H]5CC[C@]43C)[C@@H]12` [BETULINIC ACID] showed a viability at 24 h, 5 µM [1] of 99.6%, a viability at 24 h, 10 µM [2] of 91.3% and a viability at 24 h, 20 µM [3] of 81.2%. For the same compound, the viability at 24 h, 100 µM [4] was 52.9%, the Activity [5] was “Active” and the Activity [6] was “Active”. The Activity (HepG2 [7]) was “Active” and the Activity (HepG2 [8]) was “Active”.
In the case of `CC[C@H](CC[C@@H](C)[C@H]1CC[C@H]2[C@@H]3CC=C4C[C@@H](O)CC[C@]4(C)[C@H]3CC[C@]12C)C(C)C` [BETA-SITOSTEROL], the viability at 24 h, 5 µM [1] is reported as 98.8%, the viability at 24 h, 10 µM [2] is reported as 99.7% and the viability at 24 h, 20 µM [3] is reported as 82.3%. For the same compound, the viability at 24 h, 100 µM [4] was 57.8%, the Activity [5] was “Active” and the Activity [6] was “Active”. For the same compound, the Activity (HepG2 [7]) was “Active” and the Activity (HepG2 [8]) was “Active”.
Compound `C[C@H]1[C@H](C)CC[C@]2(C(=O)O)CC[C@]3(C)C(=CC[C@@H]4[C@@]5(C)CC[C@H](O)C(C)(C)[C@@H]5CC[C@]43C)[C@H]12` [URSOLIC ACID] has a viability at 24 h, 5 µM [1] of 97.1%, a viability at 24 h, 10 µM [2] of 99.2% and a viability at 24 h, 20 µM [3] of 82%. For the same compound, the viability at 24 h, 100 µM [4] was 55.8%, the Activity [5] was “Active” and the Activity [6] was “Active”. The Activity (HepG2 [7]) was “Active” and the Activity (HepG2 [8]) was “Active”.
Compound `CC1(C)CC[C@]2(C(=O)O)CC[C@]3(C)C(=CC[C@@H]4[C@@]5(C)CC[C@H](O)C(C)(C)[C@@H]5CC[C@]43C)[C@@H]2C1` [OLEANOLIC_ACID] has a viability at 24 h, 5 µM [1] of 97.8%, a viability at 24 h, 10 µM [2] of 99.9% and a viability at 24 h, 20 µM [3] of 82.4%. The viability at 24 h, 100 µM [4] was 54.1%, the Activity [5] was “Active” and the Activity [6] was “Active”. For the same compound, the Activity (HepG2 [7]) was “Active” and the Activity (HepG2 [8]) was “Active”.
In the case of `CC[C@H](CC[C@@H](C)[C@H]1CC[C@H]2[C@@H]3CC=C4C[C@@H](O[C@@H]5O[C@H](CO)[C@@H](O)[C@H](O)[C@H]5O)CC[C@]4(C)[C@H]3CC[C@]12C)C(C)C` [SITOGLUSIDE], the viability at 24 h, 5 µM [1] is reported as 99.9%, the viability at 24 h, 10 µM [2] is reported as 92.8% and the viability at 24 h, 20 µM [3] is reported as 82.7%. For the same compound, the viability at 24 h, 100 µM [4] was 66.3%, the Activity [5] was “Active” and the Activity [6] was “Active”. For the same compound, the Activity (HepG2 [7]) was “Active” and the Activity (HepG2 [8]) was “Active”.
For `CC1(C)[C@@H](O)CC[C@]2(C)[C@H]3C=CC4=C(O)C(=O)C(=O)[C@@]4(C)[C@]3(C)CC[C@@H]12` [PALBINONE], the Activity [9] was “Dose-dependent effect”, the Activity [10] was “Dose-dependent effect” and the viability at 24 h, 5 µM [1] was 98.7%. For the same compound, the viability at 24 h, 10 µM [2] was 99.8%, the viability at 24 h, 20 µM [3] was 81.5% and the viability at 24 h, 100 µM [4] was 41.6%. For the same compound, the Activity [5] was “Active”, the Activity [6] was “Active” and the Activity (HepG2 [7]) was “Active”. For the same compound, the Activity (HepG2 [8]) was “Active”, the Activity (HepG2 [11]) was “Dose-dependent effect” and the Activity (HepG2 [12]) was “Active”. For the same compound, the Activity (HepG2 [13]) was “Dose-dependent effect”.
For `C=C1CC[C@]2(C(=O)O)CC[C@]3(C)C(=CC[C@@H]4[C@@]5(C)CC[C@H](O)[C@@](C)(CO)[C@@H]5CC[C@]43C)[C@@H]2C1`, the viability at 24 h, 5 µM [1] was 100%, the viability at 24 h, 10 µM [2] was 96.7% and the viability at 24 h, 20 µM [3] was 84.6%. The viability at 24 h, 100 µM [4] was 65%, the Activity [5] was “Active” and the Activity [6] was “Active”. For the same compound, the Activity (HepG2 [7]) was “Active” and the Activity (HepG2 [8]) was “Active”.
